Structures can show the parent of a compound that is named as a salt.
What follows are compounds tested on α-SMA (assay: in vitro α-SMA expression inhibition (immunostaining, confocal microscopy) in TGF-β1-treated MRC-5 cells). Conditions: Homo sapiens, TGF-β1 (5 ng/mL), 72 hours, standardized using GAPDH.
Type: cell-based, human
Description: When scars are generated in tissue, fibroblasts undergo fibroblast-to-myofibroblast transition (FMT), and the resulting myofibroblasts produce the extracellular matrix, leading to tissue fibrosis. α-SMA is a representative biomarker of myofibroblasts, and its expression greatly increases as FMT progresses. Accordingly, through the evaluation of α-SMA expression inhibitory activity, the efficacy of the compounds in inhibiting fibrosis may be evaluated. Therefore, the inhibitory activity of the compounds of the present invention on α-SMA expression was evaluated in cells. To more accurately evaluate the inhibition of α-SMA expression, IC50 values were determined by treating human lung-derived fibroblasts (MRC-5 cells) with the compounds of the present invention in a concentration-dependent manner.
Specifically, 2 hours after the MRC-5 cells were treated with DMSO or compounds dissolved in serum containing 0.5% fetal bovine serum (FBS) in a concentration-dependent manner, fibrosis was induced by treatment with TGF-β1 (5 ng/mL). After 72 hours, the cells were immobilized with a 2% paraformaldehyde solution for 10 minutes, and to impart cell membrane permeability, a 0.1% Triton X-100 solution was treated for 10 minutes, and a 1% bovine serum albumin (BSA) solution was treated to prevent non-specific binding. For immunostaining, anti-GAPDH (BIO-RAD) was first treated as a primary antibody, and Alexa Fluor™ Plus 555 for GAPDH labeling was used as a secondary antibody. For α-SMA staining, an FITC fluorescence-tagged α-SMA primary antibody was used, and thus the increase and decrease in α-SMA caused by the compounds were evaluated. The immunohistochemical experimental results were confirmed with a STELLARIS 5 confocal microscope (Leica), and FITC-stained α-SMA was standardized using GAPDH labeled with Alexa FluorTM Plus 555 for quantification. The IC50 of the compounds according to the present invention was calculated through statistical analysis (linear mixed effects model). […]

Q: With `O=C(NC[C@H]1CCCN1)N1CCN(Cc2ccccn2)c2ccccc21` [Compound 52, (R)-4-(pyridin-2-ylmethyl)-N-(pyrrolidin-2-ylmethyl)-3,4-dihydroquinoxaline-1(2H)-carboxamide] as the compound, how does the IC50 read?
A: Its IC50 is 1 to 10 µM.

Q: `O=C(N1CCCC1)N1CCN(c2ccccc2Cl)c2ccccc21` [Compound 8, (4-(2-chlorophenyl)-3,4-dihydroquinoxaline-1(2H)-yl)(pyrrolidin-1-yl)methanone] was tested. Which IC50 did it give?
A: Its IC50 is 10 to 30 µM.

Q: `CC(C)(C)CC(=O)N1CCN(C(=O)N2CCNCC2)c2ccccc21` [Compound 78, 3,3-dimethyl-1-(4-(piperazine-1-carbonyl)-3,4-dihydroquinoxaline-1(2H)-yl)butan-1-one] was tested. Which IC50 did it give?
A: The IC50 was no more than 30 µM.

Q: Which IC50 does the source give for `CC(C)N[C@H]1CCN(C(=O)N2CCN(Cc3ccccn3)c3ccccc32)C1` [Compound 47, (S)-(3-(isopropylamino)pyrrolidin-1-yl)(4-(pyridin-2-ylmethyl)-3,4-dihydroquinoxaline-1(2H)-yl)methanone] here?
A: Its IC50 is no more than 30 µM.

Q: For `O=C(NC[C@H]1CCCN1)N1CCN(c2ccccn2)c2ccccc21` [Compound 15, (R)-4-(pyridin-2-yl)-N-(pyrrolidin-2-ylmethyl)-3,4-dihydroquinoxaline-1(2H)-carboxamide], which IC50 is on record?
A: The IC50 was less than 1 µM.

Q: For `CC1(CNC(=O)N2CCN(Cc3ccccn3)c3ccccc32)COC1` [Compound 57, N-((3-methyloxetan-3-yl)methyl)-4-(pyridin-2-ylmethyl)-3,4-dihydroquinoxaline-1(2H)-carboxamide], which IC50 is on record?
A: Its IC50 is no more than 30 µM.

Q: With `O=C(NCC1CCOC1)N1CCN(Cc2ccccn2)c2ccccc21` (stereo not drawn) [Compound 58, 4-(pyridin-2-ylmethyl)-N-((tetrahydrofuran-3-yl)methyl)-3,4-dihydroquinoxaline-1(2H)-carboxamide] as the compound, how does the IC50 read?
A: The IC50 was less than 1 µM.

Q: `CN[C@H]1CCN(C(=O)N2CCN(Cc3ccccc3)c3ccccc32)C1` [Compound 36, (S)-(4-benzyl-3,4-dihydroquinoxaline-1(2H)-yl)(3-(methylamino)pyrrolidin-1-yl)methanone] was tested. Which IC50 did it give?
A: The IC50 was 10 to 30 µM.

Q: How did the IC50 turn out when `O=C(NCC1CCNCC1)N1CCN(Cc2ccc(F)cn2)c2ccccc21` [Compound 66, 4-((5-fluoropyridine-2-yl)methyl)-N-(piperidin-4-ylmethyl)-3,4-dihydroquinoxaline-1(2H)-carboxamide oxalic acid salt] was run?
A: The IC50 was less than 1 µM.

Q: `CC(C)CC(=O)N1CCN(C(=O)NCC2CCNCC2)c2ccccc21` [Compound 77, 4-(3-Methylbutanoyl)-N-(piperidin-4-ylmethyl)-3,4-dihydroquinoxaline-1(2H)-carboxamide] was tested. Which IC50 did it give?
A: The IC50 was no more than 30 µM.

Q: With `O=C(NC[C@@H]1CCNC1)N1CCN(c2ccccn2)c2ccccc21` [Compound 14, (R)-4-(pyridin-2-yl)-N-(pyrrolidin-3-ylmethyl)-3,4-dihydroquinoxaline-1(2H)-carboxamide] as the compound, how does the IC50 read?
A: The IC50 was 1 to 10 µM.

Q: `CC(C)N[C@H]1CCN(C(=O)N2CCN(Cc3ccc(F)cc3)c3ccccc32)C1` [Compound 42, (S)-(4-(4-fluorobenzyl)-3,4-dihydroquinoxaline-1(2H)-yl)(3-(isopropylamino)pyrrolidin-1-yl)methanone] was tested. Which IC50 did it give?
A: Its IC50 is 1 to 10 µM.

Q: `O=C(NCC1COC1)N1CCN(Cc2ccccn2)c2ccccc21` [Compound 56, N-(oxetan-3-ylmethyl)-4-(pyridin-2-ylmethyl)-3,4-dihydroquinoxaline-1(2H)-carboxamide] was tested. Which IC50 did it give?
A: The IC50 was 10 to 30 µM.

Q: `O=C(NC1CCNCC1)N1CCN(Cc2ccccn2)c2ccccc21` [Compound 53, N-(piperidin-4-yl)-4-(pyridin-2-ylmethyl)-3,4-dihydroquinoxaline-1(2H)-carboxamide] was tested. Which IC50 did it give?
A: The IC50 was 1 to 10 µM.

Q: With `CN1CC[C@@H](NC(=O)N2CCN(Cc3ccccc3)c3ccccc32)C1` [Compound 34, (R)-4-benzyl-N-(1-methylpyrrolidin-3-yl)-3,4-dihydroquinoxaline-1(2H)-carboxamide] as the compound, how does the IC50 read?
A: The IC50 was 1 to 10 µM.

Q: With `O=C(N[C@H]1CCNC1)N1CCN(c2cnccn2)c2ccccc21` [Compound 19, (S)-4-(pyrazin-2-yl)-N-(pyrrolidin-3-yl)-3,4-dihydroquinoxaline-1(2H)-carboxamide] as the compound, how does the IC50 read?
A: Its IC50 is 1 to 10 µM.

Q: For `N[C@H]1CCN(C(=O)N2CCN(Cc3cccc(F)c3)c3ccccc32)C1` [Compound 39, (S)-(3-aminopyrrolidin-1-yl)(4-(3-fluorobenzyl)-3,4-dihydroquinoxaline-1(2H)-yl)methanone], which IC50 is on record?
A: The IC50 was less than 1 µM.

Q: Which IC50 does the source give for `O=C(N1CCOCC1)N1CCN(c2ccccc2Cl)c2ccccc21` [Compound 9, (4-(2-chlorophenyl)-3,4-dihydroquinoxaline-1(2H)-yl)(morpholino)methanone] here?
A: Its IC50 is no more than 30 µM.

Q: `O=C(N[C@@H]1CCOC1)N1CCN(c2cccnc2)c2ccccc21` [Compound 16, (R)-4-(pyridin-3-yl)-N-(tetrahydrofuran-3-yl)-3,4-dihydroquinoxaline-1 (2H)-carboxamide] was tested. Which IC50 did it give?
A: Its IC50 is 1 to 10 µM.

Q: How did the IC50 turn out when `O=C(NC1CCNCC1)N1CCN(c2cnccn2)c2ccccc21` [Compound 23, N-(piperidin-4-yl)-4-(pyrazin-2-yl)-3,4-dihydroquinoxaline-1(2H)-carboxamide] was run?
A: Its IC50 is 1 to 10 µM.

Q: With `CN1CCC(CNC(=O)N2CCN(Cc3ccc(F)cn3)c3ccccc32)CC1` [Compound 67, 4-((5-fluoropyridin-2-yl)methyl)-N-((1-methylpiperidin-4-yl)methyl)-3,4-dihydroquinoxaline-1(2H)-carboxamide] as the compound, how does the IC50 read?
A: The IC50 was no more than 30 µM.

Q: `CN1CCC(CNC(=O)N2CCN(Cc3ncccc3F)c3ccccc32)CC1` [Compound 69, 4-((3-fluoropyridin-2-yl)methyl)-N-((1-methylpiperidin-4-yl)methyl)-3,4-dihydroquinoxaline-1(2H)-carboxamide] was tested. Which IC50 did it give?
A: Its IC50 is 1 to 10 µM.

Q: Which IC50 does the source give for `N[C@H]1CCN(C(=O)N2CCN(Cc3ccccc3F)c3ccccc32)C1` [Compound 37, (S)-(3-aminopyrrolidin-1-yl)(4-(2-fluorobenzyl)-3,4-dihydroquinoxaline-1(2H)-yl)methanone] here?
A: Its IC50 is 1 to 10 µM.

Q: Which IC50 does the source give for `O=C(NCC1CC1)N1CCN(c2ccc(F)cc2)c2ccccc21` [Compound 6, N-(cyclopropylmethyl)-4-(4-fluorophenyl)-3,4-dihydroquinoxaline-1(2H)-carboxamide] here?
A: Its IC50 is 1 to 10 µM.

Q: Which IC50 does the source give for `CN1CCC(NC(=O)N2CCN(c3ccc(F)cn3)c3ccccc32)CC1` [Compound 18, 4-(5-fluoropyridin-2-yl)-N-(1-methylpiperidin-4-yl)-3,4-dihydroquinoxaline-1(2H)-carboxamide] here?
A: The IC50 was 1 to 10 µM.

Q: With `O=C(NC1COC1)N1CCN(Cc2ccccn2)c2ccccc21` [Compound 54, N-(oxetan-3-yl)-4-(pyridin-2-ylmethyl)-3,4-dihydroquinoxaline-1(2H)-carboxamide] as the compound, how does the IC50 read?
A: Its IC50 is less than 1 µM.

Q: With `CN1CC[C@@H](COC(=O)N2CCN(c3cnccn3)c3ccccc32)C1` [Compound 31, (R)-(1-methylpyrrolidin-3-yl)methyl-4-(pyrazin-2-yl)-3,4-dihydroquinoxaline-1(2H)-carboxylate] as the compound, how does the IC50 read?
A: Its IC50 is 1 to 10 µM.

Q: With `CN1CC[C@@H](COC(=O)N2CCN(Cc3ccccn3)c3ccccc32)C1` [Compound 64, (R)-(1-methylpyrrolidin-3-yl)methyl-4-(pyridin-2-ylmethyl)-3,4-dihydroquinoxaline-1(2H)-carboxylate] as the compound, how does the IC50 read?
A: Its IC50 is less than 1 µM.

Q: Which IC50 does the source give for `CN[C@H]1CCN(C(=O)N2CCN(Cc3ccccc3F)c3ccccc32)C1` [Compound 38, (S)-(4-(2-fluorobenzyl)-3,4-dihydroquinoxaline-1(2H)-yl)(3-(methylamino)pyrrolidin-1-yl)methanone] here?
A: Its IC50 is 1 to 10 µM.

Q: How did the IC50 turn out when `CN1CCC(NC(=S)N2CCN(c3cnccn3)c3ccccc32)CC1` [Compound 29, N-(1-methylpiperidin-4-yl)-4-(pyrazin-2-yl)-3,4-dihydroquinoxaline-1 (2H)-carbothioamide] was run?
A: The IC50 was 1 to 10 µM.

Q: For `CC(C)(C)CC(=O)N1CCN(C(=O)NCC2CCNCC2)c2ccccc21` [Compound 79, 4-(3,3-dimethylbutanoyl)-N-(piperidin-4-ylmethyl)-3,4-dihydroquinoxaline-1(2H)-carboxamide], which IC50 is on record?
A: Its IC50 is no more than 30 µM.

Q: Which IC50 does the source give for `O=C(NC[C@@H]1CCOC1)N1CCN(Cc2ccccn2)c2ccccc21` [Compound 59, (S)-4-(pyridin-2-ylmethyl)-N-((tetrahydrofuran-3-yl)methyl)-3,4-dihydroquinoxaline-1(2H)-carboxamide] here?
A: The IC50 was less than 1 µM.

Q: `CN1CCN(C(=O)N2CCN(C3CCCCC3)c3ccccc32)CC1` [Compound 70, (4-cyclohexyl-3,4-dihydroquinoxaline-1(2H)-yl)(4-methylpiperazin-1-yl)methanone] was tested. Which IC50 did it give?
A: Its IC50 is 1 to 10 µM.

Q: How did the IC50 turn out when `N[C@H]1CCN(C(=O)N2CCN(c3ccccn3)c3ccccc32)C1` [Compound 12, (S)-(3-aminopyrrolidin-1-yl)(4-(pyridin-2-yl)-3,4-dihydroquinoxaline-1(2H)-yl)methanone] was run?
A: The IC50 was no more than 30 µM.

Q: How did the IC50 turn out when `O=C(N[C@@H]1CCNC1)N1CCN(Cc2ccccc2)c2ccccc21` [Compound 33, (R)-4-benzyl-N-(pyrrolidin-3-yl)-3,4-dihydroquinoxaline-1(2H)-carboxamide] was run?
A: Its IC50 is 1 to 10 µM.

Same assay, conditions: TGF-β1 (5 ng/mL), 72 hours, standardized using GAPDH

Q: “(S)-N-(1-isobutylpyrrolidin-3-yl)-4-(pyrazin-2-ylmethyl)-3,4-dihydroquinoxaline-1(2H)-carboxamide [Compound 44]” was tested. Which IC50 did it give?
A: The IC50 was no more than 30 µM.
